What was measured:
[1] = system: Tau phosphorylation at Thr212 (pThr212) in HEK293T cells transfected with DYRK1A and MAPT; assay: Tau phosphorylation phosphoTau (Thr212) AlphaLISA assay in HEK293T cells transfected with DYRK1A and MAPT; type: cell-based; conditions: HEK-293T, HEK293T cells transiently transfected with human DYRK1A and MAPT, compound treatment 18-24 hours, read-out: pTau (Thr212) EC50
Protocol: Representative compounds were screened using the assay procedure for tau phosphorylation activity described below.
HEK293T cells (ATCC, CRL3216) cultured in DMEM (Thermo Fisher Scientific, 10566024) supplemented with 10% FBS (Coming, 35-011—CV) and Penicillin/Streptomycin (Thermo Fisher Scientific, 15140163) were seeded in a 75 cm^2 flask at 8.1×10^6 cells/flask. The HEK293T cells were then transiently transfected with 5 μg DYRK1A (NM_001396) human untagged clone (OriGene, SC314641) and 2.5 μg MAPT (441 a.a. Tau gene) (NM_005910) human untagged clone (OriGene, TP313312) using Lipofectamine 3000 (Thermo Fisher Scientific, L30000015) and incubated for 20-30 hours in a humidified incubator at 37° C. and 5% CO^2. Post-incubation, HEK293T cells transfected with the DYRK1A and MAPT expression vectors were harvested and seeded in BioCoat poly-D lysine coated 96-well plates (Coming, 354461) at 3×10^4 cells/well.
The above synthesized compounds were screened using the cell assay procedure to assess decreased Tau phosphorylation at Thr212 (pThr212) described below.
Each compound was dissolved in DMSO (Sigma-Aldrich, D8418-100 mL) as a 10 mM stock. 10 mM stocks were serially diluted 1:3, 10-point dose-response curve and added to the cells with a final concentration ranging from 20 μM to 1.1 nM. Cells were treated with compounds in duplicate and incubated for 18-24 hours in a humidified incubator at 37° C. and 5% CO^2.
Following the overnight compound treatment, cells were lysed with 1X Alpha Surefire Ultra Lysis Buffer (Perkin Elmer, ALSU-LB-100ML) complemented with 1X Halt Phosphatase Inhibitor Cocktail (Thermo Fisher Scientific, 78427) and 1X Halt Protease Inhibitor Cocktail (Thermo Fisher Scientific, 78438). Lysates were spun down at 12,000 g for 10 min to remove any cellular debris and 5 μL of lysates were dispensed into a 384-well Opti-Plate (Perkin Elmer, 6007290) for the measurement of Tau phosphorylation in the phosphoTau (Thr212) AlphaLISA assay. Donor antibody, biotinylated HT7Tau (Thermo Fisher Scientific, MN1000B), and acceptor antibody, pThr212Tau (Thermo Fisher Scientific, 44740G) were both added to the cell lysates at a final concentration of 3 nM and incubated for 1 hour at room temperature. Following incubation of the lysates with the donor and acceptor antibodies, anti-rabbit IgG(Fc specific) AlphaLISA acceptor beads (Perkin Elmer, AL104C) were added at a 10 ug/mL final concentration and incubated for 1 hour at room temperature protected from light. Lastly, AlphaScreen streptavidin donor beads (PerkinElmer, 6760002) were added at 40 ug/mL final concentration and incubated for 1 hour at room temperature protected from light. Plates were read at […] on the EnVision Multilabel Plate Reader (Perkin Elmer). The phospho-Tau (Thr212) AlphaLISA signal was used to plot, draw the curve fitting, and determine each compound's EC50 in Prism (GraphPad).

[2] = biological target: recombinant DYRK1A kinase (Homo sapiens (Human), UniProt Q13627); assay: DYRK1A kinase assay (Ser/Thr 18 peptide Z-lyte FRET); type: biochemical; conditions: DYRK1A kinase activity, Z-lyte Ser/Thr 18 peptide, 15 μM ATP; method text calls the value IC50; read-out: EC50 (the source's name)
Procedure, shortened: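 IC50 from non-linear fits of percent phosphorylation, derived from coumarin/fluorescein emission ratio after 1 h protease development. Kinase reaction: 1 h room temperature, 15 μM ATP, 4 μM Ser/Thr peptide 18, 0.25 μg/mL recombinant DYRK1A, duplicate 11-point 1:3 dilutions from 10 μM.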

SMILES | IC50 [2] [nM] | EC50 [1] [nM]
COc1nc(NC2CCC3(CC2)COC3)nn2ccc(-c3cnc4nccn4c3)c12 [Compound 276, 5-(Imidazo[1,2-a]pyrimidin-6-yl)-4-methoxy-N-(2-oxaspiro[3.5]nonan-7-yl)pyrrolo[2,1-f][1,2,4]triazin-2-amine] | 0.6 | 10.1
COc1nc(N[C@H]2CCN(C)C[C@H]2F)nn2ccc(-c3ccc4ncccc4c3)c12 [Compound 310, N-((3R,4S)-3-Fluoro-1-methylpiperidin-4-yl)-4-methoxy-5-(quinolin-6-yl)pyrrolo[2,1-f][1,2,4]triazin-2-amine] | 4.7 | 109
COc1nc(N[C@H]2CCN(C3COC3)C[C@H]2F)nn2ccc(-c3ccc4ncccc4c3)c12 [Compound 318, N-((3R,4S)-3-Fluoro-1-(oxetan-3-yl)piperidin-4-yl)-4-methoxy-5-(quinolin-6-yl)pyrrolo[2,1-f][1,2,4]triazin-2-amine] | 4.2 | 75.4
COc1nc(N[C@@H]2CN(C(C)=O)C[C@@H]2F)nn2ccc(-c3ccc4nccnc4c3)c12 [Compound 352, 1-((3S,4R)-3-Fluoro-4-((4-methoxy-5-(quinoxalin-6-yl)pyrrolo[2,1-f][1,2,4]triazin-2-yl)amino)pyrrolidin-1-yl)ethan-1-one] | 2.2 | 39.4

More lines, main results first:

IC50 [2] [nM] | SMILES | EC50 [1] [nM]
1.4 | C[C@]1(O)CC[C@H](Nc2nc(OC3COC3)c3c(-c4ccc5nccnc5c4)ccn3n2)CC1 [Compound 392, trans-1-Methyl-4-((4-(oxetan-3-yloxy)-5-(quinoxalin-6-yl)pyrrolo[2,1-f][1,2,4]triazin-2-yl)amino)cyclohexan-1-ol] | 25.2
2.3 | COc1nc(N[C@H]2CC[C@](C)(O)CC2)nn2ccc(-c3cc(F)c4nccn4c3)c12 [Compound 431, (1r,4r)-4-((5-(8-Fluoroimidazo[1,2-a]pyridin-6-yl)-4-methoxypyrrolo[2,1-f][1,2,4]triazin-2-yl)amino)-1-methylcyclohexan-1-ol] | 129
3.6 | COc1nc(N[C@@H]2CCC(F)(F)C2)nn2ccc(-c3cnc4nccn4c3)c12 [Compound 943, (R)—N-(3,3-Difluorocyclopentyl)-5-(imidazo[1,2-a]pyrimidin-6-yl)-4-methoxypyrrolo[2,1-f][1,2,4]triazin-2-amine] | 57.5
